From patent US7704756B2, “Fluorogenic dyes” (Novartis Vaccines and Diagnostics, Inc., priority 2003, dated 2010)

How the values were obtained:
[1] = pH 7.5 buffer
Procedure: An experiment was conducted to test the ability of compound 12 to respond to reducing conditions. Two incubations were performed: in the first, a control incubation, a sample of compound 12 was added to pH 7.5 buffer. In a second incubation (+DTT), the same amount of compound 12 was added to pH 7.5 buffer and then DTT was added to a final concentration of 10 mM.

[2] = Reporter selectively fluorescent under reducing conditions (DTT versus control buffer); format: physicochemical; conditions: compound 9 at 50 mM
Procedure: An experiment was conducted to determine the effect of reducing conditions versus non-reducing conditions on a reporter compound according to the invention (compound 9). Two incubations were conducted with compound 9 at a concentration of 50 mM. A control incubation was conducted which compared the same molar concentration of compound 9 in 10 mM Na phosphate at pH 7.5. A reducing reaction composition was made comprising the same buffer, and 10 mM dithiothreitol (DTT). […] For this example, synthesis of compound was conducted as previously described.

Row | mass spectrometry analysis of content of DTT containing reaction ([2]; 10 mM Na phosphate pH 7.5, 10 mM DTT) | fluorescence under reducing conditions ([2]; 10 mM Na phosphate pH 7.5, 10 mM dithiothreitol (DTT), after one minute at room temperature) | mass spectrometry analysis of content of control reaction ([2]; 10 mM Na phosphate pH 7.5, no DTT) | Molecule | colour of solution after addition of DTT (formation of free dichlorodithiofluorescein dye) ([1]; DTT 10 mM final, within one minute after addition) | colour of control incubation ([1]; no DTT)
1 | – | – | – | 5(6)-Carboxy-2′,7′-dichloro-3′,6′-bis(2′″-trimethylammonium(ethanedithio))fluorescein [compound 12] | turned light blue | remained colorless
2 | only fluorescein | strong green fluorescence | only compound 9 | CC(=O)O.CC(C)(CCSSCC[N+](C)(C)C)C(=O)Oc1ccc2c(c1)Oc1cc(OC(=O)C(C)(C)CCSSCC[N+](C)(C)C)ccc1C21OC(=O)c2ccccc21 [compound 9, Bis(4-(2′-(trimethylamino)ethanedithio)-2,2-dimethylbutyryl)carboxyfluorescein] | – | –
